Experimental data reported in US9206164B2, “Pyrazole compounds as CRTH2 antagonists” (Boehringer Ingelheim International GmbH, priority 2011, dated 2015).

molecular target: human CRTH2 receptor (Homo sapiens (Human), UniProt Q9Y5Y4); experiment: CRTH2 receptor radioligand binding assay (SPA, [3H]-PGD2 displacement); conditions: antagonistic activities of selected compounds
Description: The binding of CRTH2 antagonists is determined using membranes prepared from Chinese hamster ovary cells (CHO-K1 cells) transfected with the human CRTH2 receptor (CHO-K1-hCRTH2 cells, Perkin Elmer, Cat No ES-561-C). To produce cell membranes the CHO-K1-hCRTH2 cells are cultured in suspension in CHO SFMII medium supplemented with 400 μg/ml G418. The cells are harvested by centrifugation at 300 g for 10 min at room temperature. The cell pellet is resuspended in Phosphate Buffer Saline (PBS) including a protease inhibitor mix (Complete, Roche) and adjusted to a concentration of 10E7 cells/ml. The CHO-K1-hCRTH2 cells are disrupted by nitrogen […] to obtain the membrane preparation. Cell debris is removed by centrifugation (500 g at 4° C., 30 min) and the supernatant is transferred into fresh tubes followed by a second centrifugation at 40000 g for 1 h at 4° C. to sediment the membranes. The membranes are suspended in SPA incubation buffer (50 mM Tris HCl, 10 mM MgCl2, 150 mM NaCl, 1 mM EDTA, pH 7.4) without bovine serum albumin, homogenized by passing through a single use needle (Terumo, 23G×1″), and stored in aliquots at −80° C.
The CRTH2 receptor binding assay is performed in a scintillation proximity assay (SPA) format with the radioligand [^3H]-PGD2 (Perkin Elmer, NET616000MC). CHO-K1-hCRTH2 cell membranes are again homogenized by passing through a single use needle (Terumo, 23G×1″) and diluted in SPA incubation buffer in suitable concentrations (0.5-10 μg protein/well). The SPA assay is set up in 96 well microtiter plates (Perkin Elmer, CatNo. 6005040) in SPA incubation buffer with a final volume of 200 μl per well and final concentration of 50 mM Tris-HCl, 10 mM MgCl2, 150 mM NaCl, 1 mM EDTA pH 7.4, 0.1% bovine serum albumin). The SPA assay mixture contains 60 μl of the membrane suspension, 80 μl of Wheat Germ Agglutinin coated PVT beads (GE Healthcare, RPNQ-0001, 0.3 mg/well), 40 μl of [^3H]-PGD2 diluted in SPA buffer to a final concentration of 1 nM (50 000 dpm) and 20 μl of the test compound (dissolved in dimethylsulfoxid). The SPA assay mixture is incubated for 3 h at room temperature. Bound radioactivity is determined with a scintillation counter (Micro Beta Trilux, Wallac).
The binding of [^3H]-PGD2 to CHO-K1-hCRTH2 cell membranes is determined in the absence (total binding, Bo) and presence (non-specific binding, NSB) of unlabelled PGD2 (1 μM, Cayman Chemical, Cat No 12010) or a reference CRTH2 antagonist (10 μM CAY10471, Cayman Chemical, Cat No 10006735).
Determination of the affinity of a test compound is calculated by subtraction of the non-specific binding (NSB) from the total binding (Bo) or the binding in the presence of the test compound (B) at a given compound concentration. The NSB value is set to 100% inhibition. The Bo−NSB value is set to 0% inhibition.
% inhibition values were obtained at a defined compound concentration, e.g. at 1 μM, % inhibition of the test compound was calculated by the formula 100−((B−NSB)*100/(Bo−NSB)). % inhibition values above 100% are founded by assay variance.

human CRTH2 receptor, sequence (Q9Y5Y4 whole entry): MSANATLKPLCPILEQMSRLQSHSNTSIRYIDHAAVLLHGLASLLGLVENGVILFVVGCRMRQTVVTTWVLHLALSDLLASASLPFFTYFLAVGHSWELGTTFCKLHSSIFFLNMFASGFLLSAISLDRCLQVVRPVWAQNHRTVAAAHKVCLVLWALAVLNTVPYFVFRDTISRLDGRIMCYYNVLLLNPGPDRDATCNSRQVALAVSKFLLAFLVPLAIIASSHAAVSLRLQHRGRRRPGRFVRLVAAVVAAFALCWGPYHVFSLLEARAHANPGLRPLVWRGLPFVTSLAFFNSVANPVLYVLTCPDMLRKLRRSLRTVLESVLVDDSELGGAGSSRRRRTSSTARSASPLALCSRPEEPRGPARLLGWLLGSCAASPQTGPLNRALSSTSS

Row | SMILES | Ki [nM]
1 | Cc1nn(Cc2ccc(-c3cc4ccc(Cl)cc4[nH]3)cc2)c(C)c1CC(=O)O [Compound 1, (1-[4-(6-Chloro-1H-indol-2-yl)-benzyl]-3,5-dimethyl-1H-pyrazol-4-yl)-acetic Acid] | 0.8
2 | Cc1nn(Cc2ccc(-c3cc4cc(C(F)(F)F)ccc4[nH]3)cc2)c(C)c1CC(=O)O [Compound 2] | 11.3
3 | Cc1nn(Cc2ccc(-c3cc4cc(Cl)ccc4[nH]3)cc2)c(C)c1CC(=O)O [Compound 3] | 4.2
4 | Cc1nn(Cc2ccc(-c3cc4ccc(C(F)(F)F)cc4[nH]3)cc2)c(C)c1CC(=O)O [Compound 4] | 0.3
5 | Cc1nn(Cc2ccc(-c3cc4ccc(C(F)(F)F)cc4[nH]3)cc2F)c(C)c1CC(=O)O [Compound 5] | 0.5
6 | Cc1nn(Cc2ccc(-c3cc4ccc(Cl)cc4[nH]3)cc2F)c(C)c1CC(=O)O [Compound 6] | 0.8
7 | Cc1nn(Cc2cccc(-c3cc4ccc(Cl)cc4[nH]3)c2)c(C)c1CC(=O)O [Compound 7] | 397
8 | Cc1nn(Cc2ccccc2-c2cc3ccc(Cl)cc3[nH]2)c(C)c1CC(=O)O [Compound 8] | 394
9 | Cc1nn(Cc2cccc(-c3cc4ccc(C(F)(F)F)cc4[nH]3)c2)c(C)c1CC(=O)O [Compound 9] | 97.8
10 | Cc1nn(Cc2ccc(-c3cc4ncccc4[nH]3)cc2)c(C)c1CC(=O)O [Compound 10] | 308
11 | Cc1nn(Cc2ccc(-c3cc4ccc(C(F)(F)F)cc4[nH]3)cc2C(F)(F)F)c(C)c1CC(=O)O [Compound 11] | 0.7
12 | Cc1nn(Cc2ccc(-c3cc4cccnc4[nH]3)cc2F)c(C)c1CC(=O)O [Compound 12] | 155
13 | Cc1nn(Cc2ccc(-c3nc4ccccc4[nH]3)cc2)c(C)c1CC(=O)O [Compound 14] | 13.4
14 | CCc1nn(Cc2ccc(-c3nc4ccccc4[nH]3)cc2)c(CC)c1CC(=O)O [Compound 15] | 2.3
15 | CCc1nn(Cc2ccc(-c3nc4cc(Cl)c(Cl)cc4[nH]3)cc2)c(CC)c1CC(=O)O [Compound 16] | 0.2
16 | Cc1nn(Cc2ccc(-c3nc4cc(Cl)c(Cl)cc4[nH]3)cc2)c(C)c1CC(=O)O [Compound 17] | 1.2
17 | Cc1nn(Cc2ccc(-c3nc4cc5ccccc5cc4[nH]3)cc2)c(C)c1CC(=O)O [Compound 18] | 0.8
18 | CCc1nn(Cc2ccc(-c3nc4cc5ccccc5cc4[nH]3)cc2)c(CC)c1CC(=O)O [Compound 19] | 0.1
19 | CCc1nn(Cc2ccc(-c3nc4ccc(C(F)(F)F)cc4[nH]3)cc2)c(CC)c1CC(=O)O [Compound 20] | 0.2
20 | Cc1nn(Cc2ccc(-c3nc4ccc(C(F)(F)F)cc4[nH]3)cc2)c(C)c1CC(=O)O [Compound 21] | 1.4
21 | Cc1cc(Cn2nc(C)c(CC(=O)O)c2C)ccc1-c1nc2ccccc2[nH]1 [Compound 22] | 21.9

Row | SMILES | Ki [nM]
22 | Cc1nn(Cc2ccc(-c3nc4cc(Cl)ccc4[nH]3)cc2)c(C)c1CC(=O)O [Compound 24] | 1.9
23 | Cc1nn(Cc2ccc(-c3nc4cc(Cl)ccc4n3C)cc2)c(C)c1CC(=O)O [Compound 25] | 176
24 | CCc1nn(Cc2ccc(-c3nc4cncc(C)c4[nH]3)cc2)c(CC)c1CC(=O)O [Compound 26] | 22.6
25 | CCc1nn(Cc2ccc(-c3nc4cc(F)c(Cl)cc4[nH]3)cc2)c(CC)c1CC(=O)O [Compound 27] | 0.4
26 | Cc1nn(Cc2ccc(-c3nc4c(C)cncc4[nH]3)cc2)c(C)c1CC(=O)O [Compound 29] | 646
27 | Cc1nn(Cc2ccc(-c3nc4ccccc4n3C)cc2)c(C)c1CC(=O)O [Compound 30] | 753
28 | Cc1nn(Cc2ccc(-c3nc4cccnc4[nH]3)cc2)c(C)c1CC(=O)O [Compound 31] | 118
29 | Cc1nn(Cc2ccc(-c3nc4cc(Br)ccc4[nH]3)cc2)c(C)c1CC(=O)O [Compound 32] | 1.2
30 | Cc1nn(Cc2ccc(-c3nc4cc(C(C)(C)C)ccc4[nH]3)cc2)c(C)c1CC(=O)O [Compound 33] | 0.5
31 | CCc1nn(Cc2ccc(-c3nc4cc(C#N)ccc4[nH]3)cc2)c(CC)c1CC(=O)O [Compound 34] | 3.7
32 | CCc1nn(Cc2ccc(-c3nc4cc(Cl)c(Cl)cc4n3C)cc2)c(CC)c1CC(=O)O [Compound 35] | 66.7
33 | Cc1nn(Cc2ccc(-c3nc4c(F)cc(F)cc4[nH]3)cc2)c(C)c1CC(=O)O [Compound 36] | 5.6
34 | CCc1nn(Cc2ccc(-c3nc4cncnc4[nH]3)cc2)c(CC)c1CC(=O)O [Compound 37] | 85.4
35 | Cc1nn(Cc2ccc(-c3nc4cc(Br)cnc4[nH]3)cc2)c(C)c1CC(=O)O [Compound 38] | 7.4
36 | CCc1nn(Cc2ccc(-c3nc4cc(OC)ccc4[nH]3)cc2)c(CC)c1CC(=O)O [Compound 39] | 1.3
37 | Cc1nn(Cc2ccc(-c3nc4cc(Cl)cnc4[nH]3)cc2)c(C)c1CC(=O)O [Compound 40] | 12.4
38 | Cc1ccc2[nH]c(-c3ccc(Cn4nc(C)c(CC(=O)O)c4C)cc3)nc2c1 [Compound 41] | 4.8
39 | CCc1nn(Cc2ccc(-c3nc4cc(Cl)cnc4[nH]3)cc2)c(CC)c1CC(=O)O [Compound 42] | 1.7
40 | CCc1nn(Cc2ccc(-c3nc4c(F)c(F)ccc4[nH]3)cc2)c(CC)c1CC(=O)O [Compound 43] | 1.1
41 | COc1ccc2[nH]c(-c3ccc(Cn4nc(C)c(CC(=O)O)c4C)cc3)nc2n1 [Compound 44] | 9.6
42 | CCc1nn(Cc2ccc(-c3nc4cc(Cl)ccc4[nH]3)cc2)c(CC)c1CC(=O)O [Compound 45] | 0.3

Row | SMILES | Ki [nM]
43 | CCc1nn(Cc2ccc(-c3nc4ccccc4n3C)cc2)c(CC)c1CC(=O)O [Compound 46] | 340
44 | Cc1nn(Cc2ccc(-c3nc4c(F)c(F)ccc4[nH]3)cc2)c(C)c1CC(=O)O [Compound 47] | 4.9
45 | CCc1nn(Cc2ccc(-c3nc4cccnc4[nH]3)cc2)c(CC)c1CC(=O)O [Compound 48] | 12.9
46 | CCc1nn(Cc2ccc(-c3nc4c(F)cc(F)cc4[nH]3)cc2)c(CC)c1CC(=O)O [Compound 50] | 1.1
47 | CCc1nn(Cc2ccc(-c3nc4c(C)cccc4[nH]3)cc2)c(CC)c1CC(=O)O [Compound 51] | 2.2
48 | Cc1nn(Cc2ccc(-c3nc4c(F)cccc4[nH]3)cc2)c(C)c1CC(=O)O [Compound 52] | 8.7
49 | Cc1nn(Cc2ccc(-c3nc4cc(F)c(Cl)cc4[nH]3)cc2)c(C)c1CC(=O)O [Compound 53] | 2.3
50 | Cc1cc2nc(-c3ccc(Cn4nc(C)c(CC(=O)O)c4C)cc3)[nH]c2cc1Cl [Compound 54] | 1.1
51 | CCc1nn(Cc2ccc(-c3nc4cc(C)c(Cl)cc4[nH]3)cc2)c(CC)c1CC(=O)O [Compound 55] | 0.5
52 | CCc1nn(Cc2ccc(-c3nc4cc(F)ccc4[nH]3)cc2)c(CC)c1CC(=O)O [Compound 56] | 1.3
53 | CCc1nn(Cc2ccc(-c3nc4cc(Br)cnc4[nH]3)cc2)c(CC)c1CC(=O)O [Compound 57] | 1.5
54 | CCc1nn(Cc2ccc(-c3nc4cc(C)ccc4[nH]3)cc2)c(CC)c1CC(=O)O [Compound 58] | 1.3
55 | COc1ccc2[nH]c(-c3ccc(Cn4nc(C)c(CC(=O)O)c4C)cc3)nc2c1 [Compound 59] | 7.6
56 | Cc1nn(Cc2ccc(-c3nc4ccncc4[nH]3)cc2)c(C)c1CC(=O)O [Compound 60] | 299
57 | CCc1nn(Cc2ccc(-c3nc4ccncc4[nH]3)cc2)c(CC)c1CC(=O)O [Compound 61] | 56.4
58 | Cc1nn(Cc2ccc(-c3nc4cc(C#N)ccc4[nH]3)cc2)c(C)c1CC(=O)O [Compound 62] | 18.4
59 | Cc1nn(Cc2ccc(-c3nc4c(C)cccc4[nH]3)cc2)c(C)c1CC(=O)O [Compound 63] | 10
60 | CCc1nn(Cc2ccc(-c3nc4nc(OC)ccc4[nH]3)cc2)c(CC)c1CC(=O)O [Compound 64] | 3.1
61 | CCc1nn(Cc2ccc(-c3nc4c(Cl)cc(Cl)cc4[nH]3)cc2)c(CC)c1CC(=O)O [Compound 65] | 0.4
62 | Cc1nn(Cc2ccc(-c3nc4c(Cl)cc(Cl)cc4[nH]3)cc2)c(C)c1CC(=O)O [Compound 66] | 1
